# Assay results published in patent EP0120019B1, “PHARMACEUTICAL COMPOSITION HAVING A C[…]” (SCHERING AKTIENGESELLSCHAFT, priority 1982, dated 1983).
# What was measured:
# [1] = system: Menschliche Leukämiezellen und Lungenkarzinomzellen; experiment: Inhibition of proliferation (growth kinetics by cell count) of tumour cells in culture; assay type: cell-based; details: for zytostatische Wirkung (Hemmung der Proliferation in vitro): general statement
# [2] = system: adulte und embryonale Lungenfibroblasten; experiment: Inhibition of proliferation of normal cells under the same culture conditions; assay type: cell-based; details: high doses such as 100 ug/ml; same test conditions
# Excerpt: Tag durch frisches Medium mit Lisurid ersetzt wurde, wobei sich die Menge des Ergot-Alkaloids auf die freie Base Lisurid bezieht. Die Wachstumskinetik, d.h. die Vermehrungsrate pro Zeiteinheit, wurde durch Bestimmung der Zellzahl nach 48, 96 und 144 Stunden ermittelt und mit der von Zellen verglichen, die in Lisurid-freiem Medium kultiviert wurden.
# [3] = system: Lungenademokarzinomen und Mäuseleukämien; experiment: Long-term oral treatment of mice (104 - 107 weeks), mortality and tumour incidence; assay type: in vivo, NMRI-Mäuse; details: 0.02, 0,06 and 0,2 mg/kg oral
# Excerpt: Des weiteren wurden NMRI-Mäuse mit 0.02.
# [4] = system: weißen Blutzellen des Menschen; experiment: Accumulation in cells on incubation, detected by fluorescence optics; assay type: cell-based; details: incubation with 10^-7 -10-5-molar concentration
# Excerpt: Die selektive Wirkung auf Tumore wird auch dadurch unterstützt, daß sich Ergot-Alkaloide wie Lisurid in einzelnen Organen selektiv anreichern und damit hier zu besonders hoher Wirksamkeit gelangen.
# [5] = Long-term oral treatment of rats (104 - 107 weeks), mortality; assay type: in vivo, Han-Wistar-Ratten; details: 0,02, 0,2 and 1,0 mg/kg oral
compound,measurement,setting,value
"CCN(CC)C(=O)N[C@H]1C[C@@H]2c3cccc4[nH]cc(c34)C[C@H]2N(C)C1 [Tergurid, 1,1-Diethyl-3-(6-methyl-8a-erfolinyl)-harnstoff]",zytostatische Wirkung (Hemmung der Proliferation in vitro),[1],zytostatisch wirken
"CCN(CC)C(=O)N[C@H]1C=C2c3cccc4[nH]cc(c34)C[C@H]2N(C)C1 [Lisurid, 1,1-Diethyl-3-(6-methyl-9.10-didelhydro-8a-ergolinyl)-harnstoff]",zytotoxische Wirkung,[1]; 100 ug/ml,zytotoxische Wirkung
same,Hemmung von Normalzellen,[2],wenn überhaupt nur minimal gehemmt
same,Auftreten von Lungenademokarzinomen und Mäuseleukämien,[3],deutlichen Hemmung
same,Mortalität,[3],teilweise zur Verminderung der Mortalität
same,Anreicherung der Lisuridfluoreszenz,[4],massive Anreicherung
same,Sterblichkeit (überwiegend tumorbedingt),[5],dosisabhängig reduzieren
"CCN(CC)C(=O)N[C@H]1C=C2c3cccc4[nH]c(Br)c(c34)C[C@H]2N(C)C1 [Bromergurid, 1,1-Diethyl-3-(2-brom-6-methyl-9.10-didehydro-8a-ergolinyl)-harnstoff]",zytostatische Wirkung (Hemmung der Proliferation in vitro),[1],zytostatisch wirken
"CCCN1CC(NC(=O)N(CC)CC)CC2c3cccc4[nH]cc(c34)CC21 (stereo not drawn) [Protegurid, 1,1-Diethyl-3-(6-u-propyl-8α-ergolinyl)-harnstoff]",zytostatische Wirkung (Hemmung der Proliferation in vitro),[1],zytostatisch wirken
